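48-hour exposure; five concentrations; linearly interpolated endpoints. Abbreviation: GI50, concentration required for 50% inhibition of growth. TGI: concentration producing complete growth inhibition.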
Assays:
Assay in all cases: inhibition of tumour cell growth, NCI panel, 48 h
SF-268 CNS = tested on: SF-268 CNS
SN12C renal = tested on: SN12C renal
HCT-15 colon = tested on: HCT-15 colon
SK-MEL-2 melanoma = tested on: SK-MEL-2 melanoma
CCRF-CEM leukemia = tested on: CCRF-CEM leukemia
DU-145 prostate = tested on: DU-145 prostate
HT29 colon = tested on: HT29 colon
HOP-62 NSCLC = tested on: HOP-62 NSCLC
SW-620 colon = tested on: SW-620 colon
MALME-3M melanoma = tested on: MALME-3M melanoma
OVCAR-3 ovarian = tested on: OVCAR-3 ovarian
OVCAR-8 ovarian = tested on: OVCAR-8 ovarian
HCC-2998 colon = tested on: HCC-2998 colon
HOP-92 NSCLC = tested on: HOP-92 NSCLC
U251 CNS = tested on: U251 CNS
MCF7 breast = tested on: MCF7 breast
OVCAR-4 ovarian = tested on: OVCAR-4 ovarian
UO-31 renal = tested on: UO-31 renal
NCI-H522 lung = tested on: NCI-H522 lung
RXF 393 renal = tested on: RXF 393 renal
HL-60(TB) leukemia = tested on: HL-60(TB) leukemia
SK-OV-3 ovarian = tested on: SK-OV-3 ovarian
NCI-H226 lung = tested on: NCI-H226 lung
IGROV1 ovarian = tested on: IGROV1 ovarian
A498 renal = tested on: A498 renal
HS 578T breast = tested on: HS 578T breast
UACC-257 melanoma = tested on: UACC-257 melanoma
SNB-75 CNS = tested on: SNB-75 CNS
NCI/ADR-RES ovarian = tested on: NCI/ADR-RES ovarian
MDA-MB-231 breast = tested on: MDA-MB-231 breast
CAKI-1 renal = tested on: CAKI-1 renal
K-562 leukemia = tested on: K-562 leukemia
786-0 renal = tested on: 786-0 renal
SNB-19 CNS = tested on: SNB-19 CNS
RPMI-8226 leukemia = tested on: RPMI-8226 leukemia
NCI-H23 lung = tested on: NCI-H23 lung
SK-MEL-5 melanoma = tested on: SK-MEL-5 melanoma
KM12 colon = tested on: KM12 colon
HCT-116 colon = tested on: HCT-116 colon
EKVX NSCLC = tested on: EKVX NSCLC
BT-549 breast = tested on: BT-549 breast
COLO 205 colon = tested on: COLO 205 colon
SK-MEL-28 melanoma = tested on: SK-MEL-28 melanoma
UACC-62 melanoma = tested on: UACC-62 melanoma
NCI-H460 lung = tested on: NCI-H460 lung
A549 NSCLC = tested on: A549 NSCLC
SR leukemia = tested on: SR leukemia
ACHN renal = tested on: ACHN renal
MDA-MB-435 = tested on: MDA-MB-435
SF-295 CNS = tested on: SF-295 CNS
OVCAR-5 ovarian = tested on: OVCAR-5 ovarian
LOX IMVI melanoma = tested on: LOX IMVI melanoma
TK-10 renal = tested on: TK-10 renal
SF-539 CNS = tested on: SF-539 CNS

For COC(=O)N1CCN(CCNCc2ccc(NC(=O)c3ccc(C)c(C#Cc4cnc5cccnn45)c3)cc2C(F)(F)F)CC1, the GI50 (SF-268 CNS) was 2.08 µM, the TGI (SF-268 CNS) was 4.78 µM and the GI50 (SN12C renal) was 1.68 µM. For the same compound, the TGI (SN12C renal) was 4.08 µM, the GI50 (HCT-15 colon) was 1.1 µM and the TGI (HCT-15 colon) was 3.07 µM. The GI50 (SK-MEL-2 melanoma) was 1.15 µM, the TGI (SK-MEL-2 melanoma) was 2.8 µM and the GI50 (CCRF-CEM leukemia) was 1.46 µM. It also gave a TGI (CCRF-CEM leukemia) of 8.22 µM, a GI50 (DU-145 prostate) of 2.22 µM and a TGI (DU-145 prostate) of 4.77 µM. The GI50 (HT29 colon) was 0.769 µM, the TGI (HT29 colon) was 2.32 µM and the GI50 (HOP-62 NSCLC) was 1.59 µM. The TGI (HOP-62 NSCLC) was 3.43 µM, the GI50 (SW-620 colon) was 1.32 µM and the TGI (SW-620 colon) was 3.41 µM. For the same compound, the GI50 (MALME-3M melanoma) was 0.893 µM, the TGI (MALME-3M melanoma) was 2.41 µM and the GI50 (OVCAR-3 ovarian) was 2 µM. The TGI (OVCAR-3 ovarian) was 4.2 µM, the GI50 (OVCAR-8 ovarian) was 1.82 µM and the TGI (OVCAR-8 ovarian) was 4.35 µM. For the same compound, the GI50 (HCC-2998 colon) was 1.48 µM, the TGI (HCC-2998 colon) was 2.86 µM and the GI50 (HOP-92 NSCLC) was 0.867 µM. The TGI (HOP-92 NSCLC) was 2.83 µM, the GI50 (U251 CNS) was 1.53 µM and the TGI (U251 CNS) was 3.32 µM. For the same compound, the GI50 (MCF7 breast) was 1.47 µM, the TGI (MCF7 breast) was 3.06 µM and the GI50 (OVCAR-4 ovarian) was 1.93 µM. The TGI (OVCAR-4 ovarian) was 5.86 µM, the GI50 (UO-31 renal) was 1.34 µM and the TGI (UO-31 renal) was 3.14 µM. It also gave a GI50 (NCI-H522 lung) of 1.51 µM, a TGI (NCI-H522 lung) of 3.23 µM and a GI50 (RXF 393 renal) of 1.73 µM. It also gave a TGI (RXF 393 renal) of 3.21 µM, a GI50 (HL-60(TB) leukemia) of 0.342 µM and a TGI (HL-60(TB) leukemia) of 3.22 µM. For the same compound, the GI50 (SK-OV-3 ovarian) was 2.07 µM, the TGI (SK-OV-3 ovarian) was 3.85 µM and the GI50 (NCI-H226 lung) was 1.39 µM. For the same compound, the TGI (NCI-H226 lung) was 5.32 µM, the GI50 (IGROV1 ovarian) was 1.41 µM and the TGI (IGROV1 ovarian) was 3.43 µM. It also gave a GI50 (A498 renal) of 2.8 µM, a TGI (A498 renal) of 7.35 µM and a GI50 (HS 578T breast) of 1.72 µM. It also gave a TGI (HS 578T breast) of 5.04 µM, a GI50 (UACC-257 melanoma) of 1.53 µM and a TGI (UACC-257 melanoma) of 3.27 µM. The GI50 (SNB-75 CNS) was 0.372 µM, the TGI (SNB-75 CNS) was 1.95 µM and the GI50 (NCI/ADR-RES ovarian) was 2.02 µM. It also gave a TGI (NCI/ADR-RES ovarian) of 6.24 µM, a GI50 (MDA-MB-231 breast) of 1.26 µM and a TGI (MDA-MB-231 breast) of 3.25 µM. The GI50 (CAKI-1 renal) was 1.89 µM, the TGI (CAKI-1 renal) was 4.71 µM and the TGI (K-562 leukemia) was > 100 µM. For the same compound, the GI50 (786-0 renal) was 1.45 µM, the TGI (786-0 renal) was 3.54 µM and the GI50 (SNB-19 CNS) was 2.53 µM. For the same compound, the TGI (SNB-19 CNS) was 5.89 µM, the GI50 (RPMI-8226 leukemia) was 1.37 µM and the TGI (RPMI-8226 leukemia) was 4.32 µM. The GI50 (NCI-H23 lung) was 1.17 µM, the TGI (NCI-H23 lung) was 2.88 µM and the GI50 (SK-MEL-5 melanoma) was 1.58 µM. For the same compound, the TGI (SK-MEL-5 melanoma) was 2.97 µM, the GI50 (KM12 colon) was 0.434 µM and the TGI (KM12 colon) was 1.73 µM. The GI50 (HCT-116 colon) was 0.63 µM, the TGI (HCT-116 colon) was 2.32 µM and the GI50 (EKVX NSCLC) was 2.04 µM. For the same compound, the TGI (EKVX NSCLC) was 4.39 µM, the GI50 (BT-549 breast) was 2.4 µM and the TGI (BT-549 breast) was 4.95 µM. The GI50 (COLO 205 colon) was 1.19 µM, the TGI (COLO 205 colon) was 2.79 µM and the GI50 (SK-MEL-28 melanoma) was 1.48 µM. For the same compound, the TGI (SK-MEL-28 melanoma) was 2.89 µM, the GI50 (UACC-62 melanoma) was 1.43 µM and the TGI (UACC-62 melanoma) was 3.04 µM. The GI50 (NCI-H460 lung) was 1.85 µM, the TGI (NCI-H460 lung) was 3.76 µM and the GI50 (A549 NSCLC) was 1.69 µM. For the same compound, the TGI (A549 NSCLC) was 4.21 µM, the GI50 (SR leukemia) was 0.796 µM and the TGI (SR leukemia) was 22.1 µM. For the same compound, the GI50 (ACHN renal) was 2.32 µM, the TGI (ACHN renal) was 6.85 µM and the GI50 (MDA-MB-435) was 1.08 µM. For the same compound, the TGI (MDA-MB-435) was 2.39 µM, the GI50 (SF-295 CNS) was 1.54 µM and the TGI (SF-295 CNS) was 3.03 µM. For the same compound, the GI50 (OVCAR-5 ovarian) was 1.39 µM, the TGI (OVCAR-5 ovarian) was 3.97 µM and the GI50 (LOX IMVI melanoma) was 0.743 µM. It also gave a TGI (LOX IMVI melanoma) of 2.05 µM, a GI50 (TK-10 renal) of 2.21 µM and a TGI (TK-10 renal) of 5.07 µM. It also gave a GI50 (SF-539 CNS) of 1.4 µM and a TGI (SF-539 CNS) of 2.78 µM.
